Results published in patent publication US10947213B1 (Merck Patent GmbH, priority 2015, dated 2021).
Where a name gives a salt, the structure may show the parent alone.

Biological target: T1, TLR7/NFKb HEK cells (Homo sapiens, UniProt Q9NYK1)
T1 construct: expressed in transfected cells; host or cells: HEK cells (TLR7/NFKb reporter line)
T1 sequence (Q9NYK1 27-1049): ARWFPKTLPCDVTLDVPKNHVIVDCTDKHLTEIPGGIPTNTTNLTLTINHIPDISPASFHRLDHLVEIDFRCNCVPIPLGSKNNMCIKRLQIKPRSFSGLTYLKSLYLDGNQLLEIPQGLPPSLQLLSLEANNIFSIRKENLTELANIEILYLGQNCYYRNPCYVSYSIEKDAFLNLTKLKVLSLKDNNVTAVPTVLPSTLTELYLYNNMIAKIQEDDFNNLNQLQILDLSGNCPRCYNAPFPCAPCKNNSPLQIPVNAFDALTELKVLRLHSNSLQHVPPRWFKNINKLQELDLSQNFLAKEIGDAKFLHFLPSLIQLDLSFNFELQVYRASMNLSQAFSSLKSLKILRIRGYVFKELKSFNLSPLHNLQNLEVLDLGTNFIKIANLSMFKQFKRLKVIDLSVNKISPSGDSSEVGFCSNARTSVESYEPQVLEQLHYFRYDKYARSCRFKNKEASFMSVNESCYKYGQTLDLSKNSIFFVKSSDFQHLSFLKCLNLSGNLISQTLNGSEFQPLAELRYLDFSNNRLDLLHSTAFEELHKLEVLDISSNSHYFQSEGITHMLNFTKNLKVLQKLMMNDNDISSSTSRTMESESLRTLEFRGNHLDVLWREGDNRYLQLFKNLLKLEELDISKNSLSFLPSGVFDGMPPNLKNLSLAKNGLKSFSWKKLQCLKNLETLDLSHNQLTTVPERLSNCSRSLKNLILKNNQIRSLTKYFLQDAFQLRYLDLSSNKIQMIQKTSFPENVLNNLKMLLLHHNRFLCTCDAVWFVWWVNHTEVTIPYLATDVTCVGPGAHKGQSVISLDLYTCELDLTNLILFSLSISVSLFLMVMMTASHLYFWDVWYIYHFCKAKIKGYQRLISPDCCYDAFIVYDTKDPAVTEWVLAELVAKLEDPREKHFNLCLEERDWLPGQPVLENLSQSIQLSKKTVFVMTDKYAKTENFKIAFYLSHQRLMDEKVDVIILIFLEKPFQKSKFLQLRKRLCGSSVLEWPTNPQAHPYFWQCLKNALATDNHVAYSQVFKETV
Assay: HEK Cell Assay (TLR7/NFKb reporter, Steady-Glo luciferase readout)
Type: cell-based
Details: 30 min compound preincubation, then R*48 agonist for 5 hours, read-out: Potency
Method: Example 142: HEK Cell Assay
Into 384 CulturePlates (Corning 3707) was placed 5000 c/w of TLR7/NFKb HEK cells in 30 uL DMEM without Phenil red (gibco #31053) and 10% i.a. FCS and 2 mM L-ZGLutamin. The cells were incubated for 24 h at 37° C., 10% carbon dioxide and 90% relative humidity. 3 uL of controls, standards, and compounds were dispensed into wells, incubated for 30 min then 3 uL of R*48 agonist in 20 mM Hepes was added. After incubation for 5 hours, they were allowed to stand at room temperature for 15 min. To this was added 10 uL of Steady-Glo substrate reagent and shake assay plate for 5 min at 1500 rpm. The assay plate was allowed to sit for 30 min at room temperature and then the plate was read on EnVision.

| SMILES | IC50 [nM] |
| --- | --- |
| N#Cc1ccc(N2CC(N)CC(C(F)(F)F)C2)c2nccnc12 (single isomer, unassigned) [Compound 83] | < 1000 |
| CC(C)[C@H](O)C(=O)NC1CC(C(F)(F)F)CN(c2ccc(C#N)c3nccnc23)C1 (single isomer, unassigned) [Compound 87] | < 1000 |
| CC(C)[C@H](O)C(=O)NC1CC(C(F)(F)F)CN(c2ccc(C#N)c3nccnc23)C1 (single isomer, unassigned) [Compound 88] | < 1000 |
| N#Cc1ccc(N2CC(NC3CCC(O)CC3)CC(C(F)(F)F)C2)c2nccnc12 (single isomer, unassigned) [Compound 91, cis,cis-8-(3-((4-hydroxycyclohexyl)amino)-5-(trifluoromethyl)piperidin-1-yl)quinoxaline-5-carbonitrile] | < 1000 |
| N#Cc1ccc(N2CC(NC3CCC(O)CC3)CC(C(F)(F)F)C2)c2nccnc12 (single isomer, unassigned) [Compound 92, cis,trans-8-(-3-((4-hydroxycyclohexyl)amino)-5-(trifluoromethyl)piperidin-1-yl)quinoxaline-5-carbonitrile] | 1000 to 10000 |
| OC1CCC(NC2CC(C(F)(F)F)CN(c3ccnc4nccnc34)C2)CC1 (single isomer, unassigned) [Compound 93, cis,cis-4-((1-(pyrido[2,3-b]pyrazin-8-yl)-5-(trifluoromethyl)piperidin-3-yl)amino)cyclohexanol] | > 10000 |
| OC1CCC(NC2CC(C(F)(F)F)CN(c3ccnc4nccnc34)C2)CC1 (single isomer, unassigned) [Compound 94, trans,cis-4-((1-(pyrido[2,3-b]pyrazin-8-yl)-5-(trifluoromethyl)piperidin-3-yl)amino)cyclohexanol] | > 10000 |
| C[C@H]1C[C@@H](NC(=O)C(N)C(F)(F)F)CN(c2ccc(C#N)c3nccnc23)C1 (single isomer, unassigned) [Compound 112, hydrochloride] | 1000 to 10000 |
| C[C@H]1C[C@@H](NC(=O)C(N)C(F)(F)F)CN(c2ccc(C#N)c3nccnc23)C1 (single isomer, unassigned) [Compound 113, hydrochloride] | < 1000 |
| C[C@H]1C[C@@H](NC(=O)C(N)C(F)(F)F)CN(c2ccnc3nccnc23)C1 (single isomer, unassigned) [Compound 114, hydrochloride] | > 10000 |
| C[C@H]1C[C@@H](NC2CCN(C)C2=O)CN(c2ccc(C#N)c3nccnc23)C1 (single isomer, unassigned) [Compound 124] | < 1000 |
| C[C@H]1C[C@@H](NC2CCN(C)C2=O)CN(c2ccc(C#N)c3nccnc23)C1 (single isomer, unassigned) [Compound 125] | < 1000 |
| C[C@H]1C[C@@H](NC2CCC(O)CC2)CN(c2ccc(C#N)c3nccnc23)C1 (single isomer, unassigned) [Compound 135] | < 1000 |
| C[C@H]1C[C@@H](NC2CCC(O)CC2)CN(c2ccc(C#N)c3nccnc23)C1 (single isomer, unassigned) [Compound 136] | < 1000 |
| C[C@H]1C[C@@H](NC(=O)CC(O)C(C)(C)C)CN(c2ccc(C#N)c3nccnc23)C1 (single isomer, unassigned) [Compound 146] | < 1000 |
| C[C@H]1C[C@@H](NC(=O)CC(O)C(C)(C)C)CN(c2ccc(C#N)c3nccnc23)C1 (single isomer, unassigned) [Compound 147] | < 1000 |
| C[C@H]1C[C@@H](NC(=O)CC(O)C(C)(C)C)CN(c2ccnc3nccnc23)C1 (single isomer, unassigned) [Compound 148] | > 10000 |
| C[C@H]1C[C@@H](NC(=O)CC(O)C(C)(C)C)CN(c2ccnc3nccnc23)C1 (single isomer, unassigned) [Compound 149] | > 10000 |

The remaining lines, values ahead:

| IC50 [nM] | SMILES |
| --- | --- |
| < 1000 | CCC(C)CC(=O)N[C@@H]1C[C@H](C)CN(c2ccc(C#N)c3nccnc23)C1 (single isomer, unassigned) [Compound 150] |
| < 1000 | CCC(C)CC(=O)N[C@@H]1C[C@H](C)CN(c2ccc(C#N)c3nccnc23)C1 (single isomer, unassigned) [Compound 151] |
| 1000 to 10000 | CCC(C)CC(=O)N[C@@H]1C[C@H](C)CN(c2ccnc3nccnc23)C1 (single isomer, unassigned) [Compound 152] |
| 1000 to 10000 | CCC(C)CC(=O)N[C@@H]1C[C@H](C)CN(c2ccnc3nccnc23)C1 (single isomer, unassigned) [Compound 153] |
| < 1000 | CCC(C)C(=O)N[C@@H]1C[C@H](C)CN(c2ccc(C#N)c3nccnc23)C1 (single isomer, unassigned) [Compound 154] |
| 1000 to 10000 | CCC(C)C(=O)N[C@@H]1C[C@H](C)CN(c2ccc(C#N)c3nccnc23)C1 (single isomer, unassigned) [Compound 155] |
| > 10000 | CCC(C)C(=O)N[C@@H]1C[C@H](C)CN(c2ccnc3nccnc23)C1 (single isomer, unassigned) [Compound 156] |
| > 10000 | CCC(C)C(=O)N[C@@H]1C[C@H](C)CN(c2ccnc3nccnc23)C1 (single isomer, unassigned) [Compound 157] |
| 1000 to 10000 | COC(C)C(=O)N[C@@H]1C[C@H](C)CN(c2ccc(C#N)c3nccnc23)C1 (single isomer, unassigned) [Compound 158] |
| 1000 to 10000 | COC(C)C(=O)N[C@@H]1C[C@H](C)CN(c2ccc(C#N)c3nccnc23)C1 (single isomer, unassigned) [Compound 159] |
| > 10000 | COC(C)C(=O)N[C@@H]1C[C@H](C)CN(c2ccnc3nccnc23)C1 (single isomer, unassigned) [Compound 160] |
| > 10000 | COC(C)C(=O)N[C@@H]1C[C@H](C)CN(c2ccnc3nccnc23)C1 (single isomer, unassigned) [Compound 161] |
| 1000 to 10000 | CC(C)[C@H](O)C(=O)NC1CC(C2CC2)CN(c2ccc(C#N)c3nccnc23)C1 (single isomer, unassigned) [Compound 173] |
| > 10000 | CC(C)[C@H](O)C(=O)NC1CC(C2CC2)CN(c2ccc(C#N)c3nccnc23)C1 (single isomer, unassigned) [Compound 174] |
| 1000 to 10000 | N#Cc1ccc(N2CC(NC(=O)C(N)C(F)(F)F)CC(C3CC3)C2)c2nccnc12 (single isomer, unassigned) [Compound 177] |
| 1000 to 10000 | N#Cc1ccc(N2CC(NC(=O)C(N)C(F)(F)F)CC(C3CC3)C2)c2nccnc12 (single isomer, unassigned) [Compound 178] |
| > 10000 | C[C@H]1C[C@@H](NC(=O)C(N)C(F)(F)F)CN(c2ccc(C(N)=O)c3ncccc23)C1 (single isomer, unassigned) [Compound 184] |
| > 10000 | C[C@H]1C[C@@H](NC(=O)C(N)C(F)(F)F)CN(c2ccc(C(N)=O)c3ncccc23)C1 (single isomer, unassigned) [Compound 185] |
| 1000 to 10000 | COc1ccc(N2C[C@@H](C)C[C@@H](NC(=O)C(N)C(F)(F)F)C2)c2cccnc12 (single isomer, unassigned) [Compound 191] |
| 1000 to 10000 | COc1ccc(N2C[C@@H](C)C[C@@H](NC(=O)C(N)C(F)(F)F)C2)c2cccnc12 (single isomer, unassigned) [Compound 192] |
| 1000 to 10000 | C[C@H]1C[C@@H](NC(=O)C(N)C(F)(F)F)CN(c2ccc(C(F)(F)F)c3ncccc23)C1 (single isomer, unassigned) [Compound 197] |
